Data reported in patent US8933230B2, “Phosphorus-containing group-substituted quinoline, its preparation process, medical composition containing the compounds and application” (priority 2011, dated 2015).

Experiments:
[1] = Body weight of GTL-16 tumor-bearing nude mice under treatment; format: in vivo, BALB/c-nu/nu mice; details: after treating for 14 days, 50 mg/kg qd p.o.
Method: Firstly culturing the GTL-16 gastric cancer cells: GTL-16 cell line is inoculated in RPM 1-1640 culture solution containing 10% FBS, 100 U/ml penicillin, 100 U/ml streptomycin, and cultured at 37° C., 5% CO2, 100% humidity in a carbon dioxide cell incubator, the cells enter into logarithmic growth phase after 24 hours, after 48 hours of inoculation, the cells grow to cover the bottom of the culture bottle. Then the GTL-16 cells covering 80% bottom of the culture bottle are digested, 5 minutes after centrifuging at 1000 r/min, the cells are diluted to 2×10^7/ml and implanted subcutaneously in the right anterior axillary fossa with 0.1 ml per mouse. […]

[2] = system: GTL-16 human gastric cancer cells; assay: Anti-tumor experiment, GTL-16 xenograft in nude mice; format: in vivo, BALB/c-nu/nu mice; details: after 14 days, 50 mg/kg qd p.o.
Text: Anti-tumor experiments: in this example, N1-[4-[[7-[3-(diethoxyphosphorylmethylamino)propoxyl]-6-methoxyl-4-quinolyl]oxyl]-3-fluorophenyl]-N1′-(4-fluorophenyl)cyclopropane-1,1-dicarboxamide obtained from Example 3 is used in the anti-tumor experiments in nude mice animal model of xenograft GTL-16 human gastric cancer cells, the methods and results are as follows:
7-8 weeks old SPF level female BALB/c-nu/nu mice with 16-20 g of body weights are purchased from Experimental Animal Center of Guangdong Province, inspection certificate number: NO:0072659. GTL-16 gastric cancer cells are purchased from the Cell Source Center of Shanghai Institutes for Biological Sciences. RPM 1-1640 cell culture medium, fetal calf serum (FBS) and digestive juice of trypsin are from Gibco Corporation. All the antibiotics are purchased from Sigma Company.
Firstly culturing the GTL-16 gastric cancer cells: GTL-16 cell line is inoculated in RPM 1-1640 culture solution containing 10% FBS, 100 U/ml penicillin, 100 U/ml streptomycin, and cultured at 37° C., 5% CO2, 100% humidity in a carbon dioxide cell incubator, the cells enter into logarithmic growth phase after 24 hours, after 48 hours of inoculation, the cells grow to cover the bottom of the culture bottle. […]

CCOP(=O)(CNCCCOc1cc2nccc(Oc3ccc(NC(=O)C4(C(=O)Nc5ccc(F)cc5)CC4)cc3F)c2cc1OC)OCC [Example 3, N1-[4-[[7-[3-(diethoxyphosphorylmethylamino)propoxyl]-6-methoxyl-4-quinolyl]oxyl]-3-fluorophenyl]-N1′-(4-fluorophenyl)cyclopropane-1,1-dicarboxamide]
body weight change [1]: < 5% | Tumor Growth Inhibition (TGI) [2]: 85% | average tumor volume ([2]; mean±SD, n=8): 57.1±61.2 mm^3
